The record followed here is ChEMBL document CHEMBL3102826 (J Med Chem, 2013).

Activity calls are given as the source filed them. No cut-off for these calls is given here.

For data set [1], the target named is T1, Dual specificity tyrosine-phosphorylation-regulated kinase 1A (Rattus norvegicus, UniProt Q63470). Description: Inhibition of rat recombinant 6xHis-tagged DYRK1A catalytic domain (1 to 502) expressed in Escherichia coli BL21 (DE3) using N-terminal fluorescein coupled KISGRLSPIMTEQ as substrate after 30 mins by HPLC analysis in presence of 50 uM ATP.
For data set [2], the target named is T1, Dual specificity tyrosine-phosphorylation-regulated kinase 1A. Description: Competitive inhibition of rat recombinant 6xHis-tagged DYRK1A catalytic domain (1 to 502) expressed in Escherichia coli BL21 (DE3) using ATP as substrate by Michaelis-Menten plot analysis.
Data set [3] addresses Serine/threonine-protein kinase pim-1 (Homo sapiens) (UniProt P11309). Description: Inhibition of human Pim1 kinase at 5 x 10^-8 M.
Data set [4] has as its target T1, Dual specificity tyrosine-phosphorylation-regulated kinase 1A. Description: Inhibition of rat recombinant 6xHis-tagged DYRK1A catalytic domain (1 to 502) expressed in Escherichia coli BL21 (DE3) using N-terminal fluorescein coupled KISGRLSPIMTEQ as substrate after 30 mins by HPLC analysis in presence of 1 mM ATP.
Data set [5] has as its target Glycogen synthase kinase-3 beta (Homo sapiens) (UniProt P49841). Description: Inhibition of human GSK-3beta at 5 x 10^-8 M.
Data set [6] can be described thus: Cytotoxicity against human KB cells assessed as growth inhibition at 10^-6 M after 72 hrs by resazurin dye-based fluorimetric analysis relative to control. The class given is cell-based. The settings on record: read-out: GI.
Data set [7] addresses Mitogen-activated protein kinase 1 (Homo sapiens) (UniProt P28482). In words: Inhibition of human ERK2 at 5 x 10^-8 M.
In data set [8] the target is High affinity nerve growth factor receptor (Homo sapiens) (UniProt P04629). Description: Inhibition of human TRKA at 5 x 10^-8 M.
The nature of data set [9]: Cytotoxicity against human KB cells assessed as growth inhibition at 10^-5 M after 72 hrs by resazurin dye-based fluorimetric analysis relative to control. The class given is cell-based. The settings on record: read-out: GI.
Data set [10] concerns the target CDK2/Cyclin A2 (Homo sapiens) (UniProt P24941+P20248). In words: Inhibition of human CDK2/cyclin A at 5 x 10^-8 M relative to control. Type of data set: protein-complex assay.
In data set [11] the target is T2, Dual specificity tyrosine-phosphorylation-regulated kinase 3 (Homo sapiens) (UniProt O43781).
T2 sequence (whole entry): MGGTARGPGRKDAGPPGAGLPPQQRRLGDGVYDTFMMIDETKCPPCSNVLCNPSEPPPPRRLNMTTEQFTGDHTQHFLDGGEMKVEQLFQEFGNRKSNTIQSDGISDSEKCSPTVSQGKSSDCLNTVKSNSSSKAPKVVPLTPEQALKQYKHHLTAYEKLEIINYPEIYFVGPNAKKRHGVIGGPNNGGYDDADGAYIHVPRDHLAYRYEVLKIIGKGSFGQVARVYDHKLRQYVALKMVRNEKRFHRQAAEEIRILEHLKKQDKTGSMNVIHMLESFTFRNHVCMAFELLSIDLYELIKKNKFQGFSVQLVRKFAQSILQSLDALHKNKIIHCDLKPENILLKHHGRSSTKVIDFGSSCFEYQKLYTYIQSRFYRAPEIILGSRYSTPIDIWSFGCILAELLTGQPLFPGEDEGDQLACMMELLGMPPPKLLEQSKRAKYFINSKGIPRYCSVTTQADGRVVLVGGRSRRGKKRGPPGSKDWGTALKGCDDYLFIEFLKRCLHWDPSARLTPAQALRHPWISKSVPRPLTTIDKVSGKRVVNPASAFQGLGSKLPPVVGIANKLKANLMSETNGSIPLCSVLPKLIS
Description: Inhibition of human DYRK3 at 5 x 10^-8 M relative to control.

In data set [12] the target is Casein kinase I isoform alpha (Homo sapiens) (UniProt P48729). In words: Inhibition of human CK1alpha at 5 x 10^-8 M relative to control.
For data set [13], the target named is T3, Dual specificity tyrosine-phosphorylation-regulated kinase 2 (Homo sapiens) (UniProt Q92630).
T3 sequence (whole entry): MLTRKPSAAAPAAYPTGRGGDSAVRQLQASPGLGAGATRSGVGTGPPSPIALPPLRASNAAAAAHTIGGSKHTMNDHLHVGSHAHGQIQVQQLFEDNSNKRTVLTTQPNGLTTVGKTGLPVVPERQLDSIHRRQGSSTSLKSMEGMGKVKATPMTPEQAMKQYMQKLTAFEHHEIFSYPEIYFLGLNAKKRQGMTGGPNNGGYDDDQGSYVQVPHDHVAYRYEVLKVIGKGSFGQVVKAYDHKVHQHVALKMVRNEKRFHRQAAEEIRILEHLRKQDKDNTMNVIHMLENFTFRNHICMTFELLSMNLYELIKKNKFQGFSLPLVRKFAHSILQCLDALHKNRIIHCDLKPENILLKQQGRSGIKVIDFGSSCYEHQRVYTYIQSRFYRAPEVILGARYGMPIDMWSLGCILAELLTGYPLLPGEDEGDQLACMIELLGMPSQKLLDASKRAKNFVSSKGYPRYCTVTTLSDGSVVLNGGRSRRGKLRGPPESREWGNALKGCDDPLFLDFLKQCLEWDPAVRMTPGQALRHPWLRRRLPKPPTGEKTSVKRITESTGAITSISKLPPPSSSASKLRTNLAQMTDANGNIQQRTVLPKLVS
In words: Inhibition of human DYRK2 at 5 x 10^-8 M relative to control.

Data set [14] concerns the target RAC-alpha serine/threonine-protein kinase (Homo sapiens) (UniProt P31749). Description: Inhibition of human AKT1 at 5 x 10^-8 M.
In data set [15] the target is T4, Dual specificity tyrosine-phosphorylation-regulated kinase 1A (Homo sapiens, UniProt Q13627). Description: Inhibition of human GST-fused DYRK1A expressed in Escherichia coli using KISGRLSPIMTEQ as substrate.
Data set [16] addresses T4, Dual specificity tyrosine-phosphorylation-regulated kinase 1A. In words: Inhibition of DYRK1A (unknown origin) by HPLC analysis.

Mitogen-activated protein kinase 1 (Homo sapiens), sequence (P28482 whole entry): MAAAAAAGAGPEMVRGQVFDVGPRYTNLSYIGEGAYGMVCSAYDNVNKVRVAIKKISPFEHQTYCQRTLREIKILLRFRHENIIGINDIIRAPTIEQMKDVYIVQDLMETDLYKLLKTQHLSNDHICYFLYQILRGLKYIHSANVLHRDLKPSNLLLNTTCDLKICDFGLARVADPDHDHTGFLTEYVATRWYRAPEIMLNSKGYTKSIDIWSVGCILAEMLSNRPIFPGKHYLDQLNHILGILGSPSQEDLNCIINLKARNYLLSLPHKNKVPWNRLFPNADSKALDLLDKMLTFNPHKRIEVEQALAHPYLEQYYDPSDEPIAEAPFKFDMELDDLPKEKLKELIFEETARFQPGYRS
Serine/threonine-protein kinase pim-1 (Homo sapiens), sequence (P11309 whole entry, looked up, the tested form may be a part): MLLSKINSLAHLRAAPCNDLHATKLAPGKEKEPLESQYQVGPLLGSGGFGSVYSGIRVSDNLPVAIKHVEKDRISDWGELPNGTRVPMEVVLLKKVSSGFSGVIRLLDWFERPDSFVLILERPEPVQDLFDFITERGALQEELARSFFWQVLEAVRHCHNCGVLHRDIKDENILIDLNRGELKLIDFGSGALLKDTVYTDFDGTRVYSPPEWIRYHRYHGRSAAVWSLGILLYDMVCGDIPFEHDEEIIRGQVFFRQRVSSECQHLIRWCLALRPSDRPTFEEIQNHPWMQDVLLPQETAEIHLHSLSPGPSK
Glycogen synthase kinase-3 beta (Homo sapiens), sequence (P49841 whole entry, looked up): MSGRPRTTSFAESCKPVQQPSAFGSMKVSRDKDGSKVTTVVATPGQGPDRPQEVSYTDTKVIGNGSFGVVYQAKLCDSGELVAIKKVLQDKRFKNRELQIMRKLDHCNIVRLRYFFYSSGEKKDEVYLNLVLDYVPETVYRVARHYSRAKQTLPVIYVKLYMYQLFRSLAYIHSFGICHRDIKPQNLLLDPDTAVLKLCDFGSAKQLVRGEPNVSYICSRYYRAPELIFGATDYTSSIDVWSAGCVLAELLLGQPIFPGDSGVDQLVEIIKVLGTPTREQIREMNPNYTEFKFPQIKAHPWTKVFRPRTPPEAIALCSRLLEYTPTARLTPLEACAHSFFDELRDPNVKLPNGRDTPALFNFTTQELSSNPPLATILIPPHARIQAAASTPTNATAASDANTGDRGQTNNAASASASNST
High affinity nerve growth factor receptor (Homo sapiens), sequence (P04629 33-796 limits assumed): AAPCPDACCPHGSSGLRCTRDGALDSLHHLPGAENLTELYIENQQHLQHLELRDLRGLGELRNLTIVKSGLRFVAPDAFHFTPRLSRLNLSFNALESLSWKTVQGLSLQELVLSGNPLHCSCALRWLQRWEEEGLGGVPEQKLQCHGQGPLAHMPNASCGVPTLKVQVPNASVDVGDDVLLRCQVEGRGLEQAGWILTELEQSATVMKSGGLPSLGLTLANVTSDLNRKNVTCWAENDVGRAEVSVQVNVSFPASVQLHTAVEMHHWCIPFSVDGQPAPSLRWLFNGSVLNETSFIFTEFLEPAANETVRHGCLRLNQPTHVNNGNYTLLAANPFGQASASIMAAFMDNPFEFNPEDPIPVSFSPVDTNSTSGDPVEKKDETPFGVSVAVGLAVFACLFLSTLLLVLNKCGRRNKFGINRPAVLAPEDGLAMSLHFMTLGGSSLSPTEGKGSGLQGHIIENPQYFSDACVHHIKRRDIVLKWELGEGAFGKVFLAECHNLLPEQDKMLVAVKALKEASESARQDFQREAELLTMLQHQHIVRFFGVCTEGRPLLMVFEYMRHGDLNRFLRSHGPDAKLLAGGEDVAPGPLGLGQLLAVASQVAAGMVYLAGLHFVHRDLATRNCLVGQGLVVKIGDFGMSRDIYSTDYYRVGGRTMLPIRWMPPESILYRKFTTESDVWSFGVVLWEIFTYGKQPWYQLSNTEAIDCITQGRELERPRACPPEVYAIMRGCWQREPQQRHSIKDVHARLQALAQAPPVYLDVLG
Casein kinase I isoform alpha (Homo sapiens), sequence (P48729 2-337 limits assumed): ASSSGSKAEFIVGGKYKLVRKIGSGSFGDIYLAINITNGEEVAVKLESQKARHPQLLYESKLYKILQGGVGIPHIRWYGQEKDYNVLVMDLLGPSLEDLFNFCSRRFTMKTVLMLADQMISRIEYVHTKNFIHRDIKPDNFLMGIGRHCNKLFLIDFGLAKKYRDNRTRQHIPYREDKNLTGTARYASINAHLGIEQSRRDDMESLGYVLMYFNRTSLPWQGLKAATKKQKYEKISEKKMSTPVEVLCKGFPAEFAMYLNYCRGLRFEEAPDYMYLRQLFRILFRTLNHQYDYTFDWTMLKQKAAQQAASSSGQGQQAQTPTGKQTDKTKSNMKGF
RAC-alpha serine/threonine-protein kinase (Homo sapiens), sequence (P31749 whole entry, the tested form may be a part): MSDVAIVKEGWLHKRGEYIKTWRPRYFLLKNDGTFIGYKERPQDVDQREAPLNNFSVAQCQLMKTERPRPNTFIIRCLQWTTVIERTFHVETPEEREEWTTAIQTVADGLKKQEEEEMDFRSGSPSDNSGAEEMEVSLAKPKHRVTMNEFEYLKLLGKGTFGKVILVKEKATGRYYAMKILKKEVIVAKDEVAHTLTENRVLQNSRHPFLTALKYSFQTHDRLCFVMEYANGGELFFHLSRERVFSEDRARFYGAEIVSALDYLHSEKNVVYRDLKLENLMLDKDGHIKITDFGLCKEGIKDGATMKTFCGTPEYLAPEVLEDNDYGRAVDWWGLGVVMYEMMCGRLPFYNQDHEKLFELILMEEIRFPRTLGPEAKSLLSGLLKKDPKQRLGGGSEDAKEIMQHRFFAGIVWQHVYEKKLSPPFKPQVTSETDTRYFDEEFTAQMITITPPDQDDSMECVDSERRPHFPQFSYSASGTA

For `Oc1ccc(O)c(-c2cnc3[nH]cc(-c4ccc(O)c(O)c4)c3c2)c1`, the 50% inhibitory concentration (IC50) in data set [1] was determined as 0.0391 µM. The inhibitory constant (Ki) in data set [2] worked out at 0.0121 µM.
Consider `Oc1ccccc1-c1cnc2[nH]cc(-c3ccccc3)c2c1`, for which the IC50 in data set [1] amounted to 3.59 µM.
The same measure, in the same setting: then `COc1ccc(-c2cnc3[nH]cc(-c4ccc(OC)cc4)c3c2)cc1`, with 1.74 µM.
As for `Oc1ccc(-c2cnc3[nH]cc(-c4ccc(O)cc4)c3c2)cc1`, the inhibition entry in data set [3], in data set [5], in data set [7] and in data set [8] was “inactive” throughout. The half-maximal inhibitory concentration (IC50) was determined as 0.043 µM in data set [4] and 0.0231 µM in data set [1]. Besides, the inhibition at 72 h, 1 µM in data set [6] came out at 51%. Also, the inhibition at 72 h, 10 µM in data set [9] was found to be 95%. Moreover, the inhibitory constant (Ki) in [2] is 0.0023 µM.
Take `Oc1ccc(-c2c[nH]c3ncc(-c4ccc(O)c(O)c4)cc23)cc1`: the inhibition result in data set [3], in data set [5], in data set [7] and in data set [8] was “inactive” each time. The concentration for half-maximal inhibition (IC50) in [4] came out at 0.0055 µM; in data set [1], 0.003 µM. Besides, the inhibition at 72 h, 1 µM in data set [6] is 56%. The inhibition at 72 h, 10 µM in data set [9] came to 86%. The inhibition constant (Ki) in [2] was under 0.002 µM.
Consider `COc1ccc(-c2cnc3[nH]cc(-c4ccccc4)c3c2)cc1`, for which the IC50 in data set [1] came to 0.96 µM.
For the compound `COc1ccc(OC)c(-c2cnc3[nH]cc(-c4ccc(OC)c(OC)c4)c3c2)c1`, the IC50 in data set [1] was determined as 1.67 µM.
Still for that read-out and setting: for `COc1ccc(-c2c[nH]c3ncc(-c4ccc(OC)cc4OC)cc23)cc1` the value was 0.28 µM.
As for `COc1ccc(-c2cnc3[nH]cc(-c4ccc(OC)c(OC)c4)c3c2)c(OC)c1`, the IC50 in data set [1] worked out at 2.88 µM.
On to `COc1ccc(-c2c[nH]c3ncc(-c4ccc(OC)c(OC)c4)cc23)cc1`, for which, in data set [1], the 50% inhibitory concentration (IC50) worked out at 0.46 µM.
As for `Oc1ccc(-c2cnc3[nH]cc(-c4ccccc4)c3c2)c(O)c1`, the IC50 in data set [1] came out at 0.15 µM.
For `COc1ccc(-c2cnc3[nH]cc(-c4ccccc4)c3c2)c(OC)c1`, the IC50 in [1] turned out to be 1.17 µM.
Take `Oc1ccc(-c2c[nH]c3ncc(-c4ccc(O)cc4O)cc23)cc1`: the inhibition result in [3], in data set [5], in data set [7] and in [8] was “inactive” each time. Moreover, the half-inhibitory concentration (IC50) in data set [4] was 0.048 µM; in data set [1], 0.0117 µM. Further, the inhibition in [10], in [11], in data set [12] and in data set [13] was under 50% throughout. In addition, in data set [6], the inhibition at 72 h, 1 µM was 21%. The inhibition at 72 h, 10 µM in data set [9] is 83%. The inhibitory constant (Ki) in [2] is 0.0055 µM.
Regarding `COc1ccc(-c2cnc3[nH]cc(-c4ccccc4)c3c2)cc1OC`, the IC50 in data set [1] worked out at 3.08 µM.
Same read-out and setting: then `COc1cccc(-c2cnc3[nH]cc(-c4ccccc4)c3c2)c1`, with 7.49 µM.
Still for that read-out and setting: then `COc1cccc(-c2cnc3[nH]cc(-c4cccc(OC)c4)c3c2)c1`, with 14.6 µM.
The same measure, in the same setting: for `COc1ccc(-c2cnc3[nH]cc(-c4ccc(OC)c(OC)c4)c3c2)cc1OC` the value was 57.8 µM.
On to `Oc1cccc(-c2cnc3[nH]cc(-c4cccc(O)c4)c3c2)c1`, for which, in data set [1], the half-maximal inhibitory concentration (IC50) came out at 0.105 µM.
On the same count and under the same terms, then `Oc1ccc(-c2cnc3[nH]cc(-c4ccccc4)c3c2)cc1O`, with 0.16 µM.
On the same count and under the same terms, for `c1ccc(-c2cnc3[nH]cc(-c4ccccc4)c3c2)cc1` the value was 0.41 µM.
`Oc1ccc(-c2cnc3[nH]cc(-c4ccc(O)c(O)c4)c3c2)cc1O`: the concentration for half-maximal inhibition (IC50) was found to be 0.032 µM in [4] and 0.0124 µM in [1]. Besides, in [6], the inhibition at 72 h, 1 µM came out at 2%. The inhibition entry in data set [14] is “Active”. Also, the inhibition at 72 h, 10 µM in data set [9] turned out to be 11%. Besides, the Ki in data set [2] was 0.0101 µM.
Regarding `Oc1cccc(-c2cnc3[nH]cc(-c4ccccc4)c3c2)c1`, the concentration for half-maximal inhibition (IC50) in data set [1] came to 2.7 µM.
For the compound `Oc1ccc(-c2cnc3[nH]cc(-c4ccc(O)c(O)c4)c3c2)c(O)c1`, the inhibition at 72 h, 1 µM in data set [6] worked out at 0%. Besides, in data set [1], the IC50 is 0.0143 µM. For the same compound, in data set [9], the inhibition at 72 h, 10 µM stood at 9%. Moreover, in data set [2], the inhibition constant Ki is 0.0076 µM.
In data set [15], `O=C(O[C@@H]1Cc2c(O)cc(O)cc2O[C@@H]1c1cc(O)c(O)c(O)c1)c1cc(O)c(O)c(O)c1` [EPIGALOCATECHIN GALLATE] registered an IC50 of 0.33 µM.
In [16], `COc1ccc(-c2cc3c(-c4ccccc4)c[nH]c3cn2)cc1` gave a half-inhibitory concentration (IC50) of 17 µM.
As for `COc1ccccc1-c1cnc2[nH]cc(-c3ccccc3)c2c1`, the IC50 in data set [1] is 0.96 µM.
As for `Oc1ccc(-c2cc3c(-c4ccccc4)c[nH]c3cn2)cc1`, in data set [16], the IC50 turned out to be 27.4 µM.
In the case of `Oc1ccc(-c2cnc3[nH]cc(-c4ccccc4)c3c2)cc1`, the IC50 in data set [1] is 0.33 µM.
